Results reported in patent US11358969B2, “Indole AHR inhibitors and uses thereof” (Ikena Oncology, Inc., priority 2017, dated 2022).

Experiments:
AHR = biological target: T1, AHR (UniProt P35869); test: DRE-Luciferase Reporter Assay (Alternate Method) (Example 1B); type: cell-based, murine or human; conditions: cell line and AHR activating ligand not specified
T1 construct: IC50
T1 sequence (P35869 1-848): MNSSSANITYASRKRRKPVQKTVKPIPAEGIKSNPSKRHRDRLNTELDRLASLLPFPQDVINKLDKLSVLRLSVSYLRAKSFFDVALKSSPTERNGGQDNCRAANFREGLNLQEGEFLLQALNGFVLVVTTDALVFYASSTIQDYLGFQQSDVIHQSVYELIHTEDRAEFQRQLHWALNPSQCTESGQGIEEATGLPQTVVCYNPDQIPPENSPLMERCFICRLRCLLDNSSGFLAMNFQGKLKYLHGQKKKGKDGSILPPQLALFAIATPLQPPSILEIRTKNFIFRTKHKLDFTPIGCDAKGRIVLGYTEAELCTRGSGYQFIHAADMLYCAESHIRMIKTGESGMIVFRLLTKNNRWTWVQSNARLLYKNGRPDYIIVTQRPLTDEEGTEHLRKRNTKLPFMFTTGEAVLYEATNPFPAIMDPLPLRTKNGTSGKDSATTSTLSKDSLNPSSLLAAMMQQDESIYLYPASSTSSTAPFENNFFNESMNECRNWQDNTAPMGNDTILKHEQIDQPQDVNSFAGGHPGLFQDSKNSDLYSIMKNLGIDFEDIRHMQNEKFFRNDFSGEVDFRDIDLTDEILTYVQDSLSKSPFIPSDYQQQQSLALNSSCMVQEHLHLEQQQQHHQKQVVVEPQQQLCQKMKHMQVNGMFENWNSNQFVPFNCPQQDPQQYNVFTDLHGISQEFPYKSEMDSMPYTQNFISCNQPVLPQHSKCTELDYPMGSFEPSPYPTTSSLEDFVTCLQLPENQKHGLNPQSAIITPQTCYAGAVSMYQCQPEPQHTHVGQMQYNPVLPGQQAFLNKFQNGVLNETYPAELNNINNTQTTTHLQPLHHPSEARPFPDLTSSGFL

[1] = In Vitro Mouse liver S9 Metabolic Stability Assay (Example 1D); type: in vitro ADME; conditions: CD-1 mouse liver S9, 1 μM compound, 1 mg/mL S9 protein, 37° C., NADPH regenerating system, UDPGA, PAPS
Experimental: CD-1 mouse liver S9 were purchased from Corning or XenoTech LLC or BioreclamationIVT, LLC or WuXi prepared. The cells were stored at −80° C. in a freezer before use. β-Nicotinamide adenine dinucleotide phosphate (NADP), Glucose 6-phosphate (G6P), Glucose 6-phosphate dehydrogenase from yeast (G6PDH), Uridine 5′-diphophoglucuronic acid trisodium salt (UDPGA) and Adenosine 3′-phosphate 5′-phosphosulfate lithium salt hydrate (PAPS) were available commercially from Sigma.
Compounds were diluted in DMSO to make 10 mM stock solution. 5 μL of this stock solution (10 mM, DMSO) was diluted with 45 μL DMSO and 450 μL 50% Methanol/Water to make intermediate stock solution (100 μM, 45% MeOH, 10% DMSO). 50 μL of intermediate stock solution was diluted with 450 μL 100 mM phosphate buffer to make a final stock solution (10 μM, 4.5% MeOH, 1% DMSO). 10 uL of final stock solution was added to 90 uL liver S9 system (final concentration of 1 μM, 0.45% MeOH, 0.1% DMSO).
Test compounds were incubated at 37° C. with liver S9 (pooled from multiple donors) at 1 μM in the presence of a NADPH regenerating system, UDPGA, and PAPS at 1 mg/mL S9 protein. Time samples (0 and 60 minutes) were removed and immediately mixed with cold acetonitrile containing internal standard (IS). Samples were analyzed by LC/MS/MS and disappearance of test compounds were assessed based on peak area ratios of analyte /IS (no standard curve). All samples were injected and analyzed using LC-MS/MS. The analyte/internal standard peak area ratios were converted to percentage remaining (% Remaining) with the following equation: % Remaining at 60 min=(Peak area ratio of analyte to IS at 60 min/Peak area ratio of analyte to IS at t=0)×100%. Table 5. Mouse Stability Data According to Example 1D.

[2] = Mouse Pharmacokinetic Study (Example 1C); type: in vivo; conditions: mouse, plasma, CD-1 mice; for Vd: read-out: Vdss
Experimental: Formulations of compounds set forth in Table 4 were administered intravenously or orally via gavage to CD-1 mice. Typically, at 0.167, 0.5, 1, 2, 4, 6, 12, and 24 hours post-dose, blood was collected and processed to plasma by centrifugation and stored at −80° C. until analysis.
Internal standard was added to each sample prior to protein precipitation with acetonitrile. The precipitates were filtered through a Phree phospholipid removal filter plate and the samples were analyzed by LC/MS/MS. A standard curve was prepared in plasma from typically from 1.0 ng/mL to 3000 ng/mL and processed in the same manner as the samples. Sample analysis was typically performed on a suitable LC/MS/MS system fitted with an analytical UPLC column and compounds eluted from the analytical column with a gradient from 30-95% 0.1% formic acid (v/v) in ACN: 0.1% formic acid (v/v) in water. Mass spectrometric detection of test compound and the internal standard was performed by MRM in positive mode. The pharmacokinetics of each compound were analyzed by Phoenix WinNonlin software (Pharsight, St. Louis, Mo.) via non-compartmental analysis.

| Structure (SMILES) | IC50 (AHR) [nM] | Mouse S9 Stability: % Remaining After 60 Minutes [1] [%] | bioavailability ([2]; po, 30 mg/kg) [%] | AUC(0-inf) ([2]; iv, 3 mg/kg) [ng·h/mL] | AUC(0-t) ([2]; iv, 3 mg/kg) [ng·h/mL] | clearance ([2]; iv, 3 mg/kg) [mL/min/kg] | half-life ([2]; iv, 3 mg/kg) [h] | Vd ([2]; iv, 3 mg/kg) [L/kg] | AUC(0-inf) ([2]; po, 30 mg/kg) [ng·h/mL] | AUC(0-t) ([2]; po, 30 mg/kg) [ng·h/mL] | Cmax ([2]; po, 30 mg/kg) [ng/mL] | Tmax ([2]; po, 30 mg/kg) [h] | half-life ([2]; po, 30 mg/kg) [h] |
| --- | --- | --- | --- | --- | --- | --- | --- | --- | --- | --- | --- | --- | --- |
| C[C@H](O)c1cnn2c(N[C@@H]3CCc4[nH]c5ccccc5c4C3)nc(-c3cncc(F)c3)nc12 [I-118] | – | – | 3 | 368 | 364 | 136 | 0.6 | 4.9 | 121 | 107 | 41 | 1 | 1.9 |
| Fc1cncc(-c2nc(N[C@@H]3CCc4[nH]c5ccccc5c4C3)c3ncccc3n2)c1 [I-126, (3R)—N-[2-(5-Fluoro-3-pyridyl)pyrido[3,2-d]pyrimidin-4-yl]-2,3,4,9-tetrahydro-1H-carbazol-3-amine] | < 500 | – | 100 | 1650 | 1460 | 30 | 8.8 | 17 | 14700 | 13700 | 1870 | 1 | 6.1 |
| N#Cc1cnn2c(N[C@@H]3CCc4[nH]c5ccccc5c4C3)nc(-c3cncc(F)c3)nc12 [I-130, 2-(5-Fluoro-3-pyridyl)-4-[[(3R)-2,3,4,9-tetrahydro-1H-carbazol-3-yl]amino]pyrazolo[1,5-a][1,3,5]triazine-8-carbonitrile] | < 500 | – | 53 | 1270 | 1220 | 39 | 2.6 | 7.5 | 6690 | 6620 | 936 | 2 | 3.5 |
| CC(C)c1cnn2c(N[C@H]3CCc4[nH]ccc4C3)nc(-c3cncc(F)c3)nc12 [I-137a, 2-(5-fluoro-3-pyridyl)-8-isopropyl-N-[(5S)-4,5,6,7-tetrahydro-1H-indol-5-yl]pyrazolo[1,5-a][1,3,5]triazin-4-amine] | < 500 | – | 19 | 2010 | 1920 | 25 | 8.2 | 6.6 | 3840 | 3780 | 953 | 0.5 | 3.5 |
| CC(C)c1cnn2c(N[C@@H]3CCc4[nH]ccc4C3)nc(-c3cncc(F)c3)nc12 [I-137b, 2-(5-fluoro-3-pyridyl)-8-isopropyl-N-[(5R)-4,5,6,7-tetrahydro-1H-indol-5-yl]pyrazolo[1,5-a][1,3,5]triazin-4-amine] | < 500 | – | 28 | 1350 | 1220 | 37 | 11.2 | 16.6 | 3830 | 3630 | 476 | 2 | 5.9 |
| Fc1cncc(-c2nc(NC3CCc4[nH]c5ccccc5c4C3)n3ncc(CNC4CC4)c3n2)c1 (stereo not drawn) [I-276] | < 500 | – | – | – | – | – | – | – | – | – | – | – | – |
| CNCc1cnn2c(NC3CCc4[nH]c5ccccc5c4C3)nc(-c3cncc(F)c3)nc12 (stereo not drawn) [I-277] | < 500 | – | – | – | – | – | – | – | – | – | – | – | – |

Results, then the compound that gave them:

| IC50 (AHR) [nM] | Mouse S9 Stability: % Remaining After 60 Minutes [1] [%] | bioavailability ([2]; po, 30 mg/kg) [%] | AUC(0-inf) ([2]; iv, 3 mg/kg) [ng·h/mL] | AUC(0-t) ([2]; iv, 3 mg/kg) [ng·h/mL] | clearance ([2]; iv, 3 mg/kg) [mL/min/kg] | half-life ([2]; iv, 3 mg/kg) [h] | Vd ([2]; iv, 3 mg/kg) [L/kg] | AUC(0-inf) ([2]; po, 30 mg/kg) [ng·h/mL] | AUC(0-t) ([2]; po, 30 mg/kg) [ng·h/mL] | Cmax ([2]; po, 30 mg/kg) [ng/mL] | Tmax ([2]; po, 30 mg/kg) [h] | half-life ([2]; po, 30 mg/kg) [h] | Structure (SMILES) |
| --- | --- | --- | --- | --- | --- | --- | --- | --- | --- | --- | --- | --- | --- |
| < 500 | 2 | – | – | – | – | – | – | – | – | – | – | – | CC(C)c1cnn2c(NCCc3c[nH]c4ccccc34)nc(-c3cncc(F)c3)nc12 [I-16, 2-(5-Fluoro-3-pyridyl)-N-[2-(1H-indol-3-yl)ethyl]-8-isopropyl-pyrazolo[1,5-a][1,3,5]triazin-4-amine] |
| < 500 | 26 | – | – | – | – | – | – | – | – | – | – | – | CC(C)Oc1cc(NCCc2c[nH]c3ccccc23)nc(-c2cncc(F)c2)n1 [I-21, 2-(5-Fluoro-3-pyridyl)-N-[2-(1H-indol-3-yl)ethyl]-6-isopropoxy-pyrimidin-4-amine] |
| – | 0 | – | – | – | – | – | – | – | – | – | – | – | CC(C)c1cnn2c(N[C@H](C)Cc3c[nH]c4ccccc34)cc(-c3cncc(F)c3)nc12 [I-98b] |
| < 500 | – | 53 | 1620 | 1340 | 31 | 14 | 22 | 7530 | 7030 | 1040 | 2 | 6.4 | CN(C)c1cnn2c(N[C@@H]3CCc4[nH]c5ccccc5c4C3)nc(-c3cncc(F)c3)nc12 [I-129, 2-(5-Fluoro-3-pyridyl)-N8,N8-dimethyl-N4-[(3R)-2,3,4,9-tetrahydro-1H-carbazol-3-yl]pyrazolo[1,5-a][1,3,5]triazine-4,8-diamine] |
| < 500 | – | 3 | 842 | 825 | 59 | 1.2 | 4.7 | 249 | 237 | 82 | 0.5 | 1.2 | Cc1cnn2c(N[C@H]3CCc4[nH]ccc4C3)nc(-c3cncc(F)c3)nc12 [I-259a, 2-(5-fluoro-3-pyridyl)-8-methyl-N-[(5S)-4,5,6,7-tetrahydro-1H-indol-5-yl]pyrazolo[1,5-a][1,3,5]triazin-4-amine] |
